Test results taken from the NIST ThermoML archive (doi:10.1016/j.tca.2013.09.017).

Legend:
[1] = 298.15 K, 101.33 kPa, Liquid; for speed of sound: Sing-around technique in a fixed-path interferometer; for mass density: Vibrating tube method
[2] = mn = molality of the nth substance listed, in mol/kg; details: 298.15 K, 101 kPa, Liquid; for speed of sound: Sing-around technique in a fixed-path interferometer; for mass density: Vibrating tube method

CCCCCCC [heptane]
[1]
Details | mass density [kg/m3] | speed of sound [m/s]
– | 679.51 | 1131.4

CN1CCCC1=O [N-methylpyrrolidone] + CCCO
[2]
Details | mass density [kg/m3] | speed of sound [m/s]
m1 = 0.0757 | 801.03 | 1209.1
m1 = 0.1611 | 802.58 | 1211.6
m1 = 0.2275 | 803.78 | 1213.4
m1 = 0.3064 | 805.2 | 1215.6
m1 = 0.381 | 806.51 | 1217.6

CN1CCCC1=O [N-methylpyrrolidone] + CCCCO
[2]
Details | mass density [kg/m3] | speed of sound [m/s]
m1 = 0.0846 | 807.27 | 1243
m1 = 0.1506 | 808.43 | 1244.6
m1 = 0.23 | 809.82 | 1245.8
m1 = 0.2953 | 810.94 | 1247.7
m1 = 0.3712 | 812.24 | 1249.6

CCC(=O)N(C)C [N,N-dimethylpropionamide] + CCCCO
[2]
Details | mass density [kg/m3] | speed of sound [m/s]
m1 = 0.0494 | 806.25 | 1241.7
m1 = 0.1311 | 807.08 | 1243.2
m1 = 0.21 | 807.88 | 1244.6
m1 = 0.2899 | 808.68 | 1246.1
m1 = 0.3702 | 809.48 | 1247.5

CCC(=O)N(C)C [N,N-dimethylpropionamide] + O
[2]
Details | mass density [kg/m3] | speed of sound [m/s]
m1 = 0.0588 | 996.85 | 1501.1
m1 = 0.1486 | 996.53 | 1508.1
m1 = 0.2471 | 996.2 | 1515.7
m1 = 0.3518 | 995.95 | 1522
m1 = 0.4457 | 995.72 | 1528.2

CO [methanol]
[1]
Details | mass density [kg/m3] | speed of sound [m/s]
– | 786.66 | 1103.4

CCO [ethanol]
[1]
Details | mass density [kg/m3] | speed of sound [m/s]
– | 785.22 | 1145.2

CCCO [propan-1-ol]
[1]
Details | mass density [kg/m3] | speed of sound [m/s]
– | 799.58 | 1206.7

CCCCO [butan-1-ol]
[1]
Details | mass density [kg/m3] | speed of sound [m/s]
– | 805.72 | 1240.5

CCC(=O)N(C)C [N,N-dimethylpropionamide] + CCCCCCC
[2]
Details | mass density [kg/m3] | speed of sound [m/s]
m1 = 0.0487 | 680.32 | 1132.3
m1 = 0.1515 | 681.98 | 1133.4
m1 = 0.2686 | 683.9 | 1135.1
m1 = 0.3627 | 685.47 | 1136.2
m1 = 0.4628 | 687.09 | 1137.5

C1CCCCC1 [cyclohexane]
[1]
Details | mass density [kg/m3] | speed of sound [m/s]
– | 773.82 | 1255

CCC(=O)N(C)C [N,N-dimethylpropionamide] + C1CCCCC1
[2]
Details | mass density [kg/m3] | speed of sound [m/s]
m1 = 0.05 | 773.91 | 1254.7
m1 = 0.1518 | 774.79 | 1254.7
m1 = 0.2497 | 775.68 | 1254.8
m1 = 0.355 | 776.64 | 1254.9
m1 = 0.4496 | 777.52 | 1255

CN1CCCC1=O [N-methylpyrrolidone] + O
[2]
Details | mass density [kg/m3] | speed of sound [m/s]
m1 = 0.0621 | 997.34 | 1500.7
m1 = 0.1225 | 997.63 | 1504.4
m1 = 0.1806 | 997.92 | 1507.8
m1 = 0.2399 | 998.21 | 1511.4
m1 = 0.3036 | 998.54 | 1515.1

CN1CCCC1=O [N-methylpyrrolidone] + CO
[2]
Details | mass density [kg/m3] | speed of sound [m/s]
m1 = 0.0786 | 788.33 | 1106.3
m1 = 0.1588 | 789.97 | 1109
m1 = 0.2275 | 791.35 | 1111.2
m1 = 0.3082 | 792.96 | 1114
m1 = 0.3854 | 794.5 | 1116.6

CCC(=O)N(C)C [N,N-dimethylpropionamide] + CCO
[2]
Details | mass density [kg/m3] | speed of sound [m/s]
m1 = 0.0587 | 785.99 | 1146.6
m1 = 0.1486 | 787.09 | 1148.1
m1 = 0.2471 | 788.4 | 1150.7
m1 = 0.3517 | 789.6 | 1153.2
m1 = 0.4456 | 790.79 | 1155.3

CN1CCCC1=O [N-methylpyrrolidone] + CCCCCCC
[2]
Details | mass density [kg/m3] | speed of sound [m/s]
m1 = 0.0859 | 681.45 | 1133.1
m1 = 0.1879 | 683.75 | 1135
m1 = 0.2695 | 685.56 | 1136.4
m1 = 0.3576 | 687.51 | 1137.7
m1 = 0.4488 | 689.49 | 1139.2

CN1CCCC1=O [N-methylpyrrolidone] + C1CCCCC1
[2]
Details | mass density [kg/m3] | speed of sound [m/s]
m1 = 0.0792 | 774.81 | 1256
m1 = 0.1648 | 776.26 | 1256.8
m1 = 0.2385 | 777.5 | 1257.6
m1 = 0.3142 | 778.77 | 1258.3
m1 = 0.3925 | 780.08 | 1258.7

CCC(=O)N(C)C [N,N-dimethylpropionamide] + CO
[2]
Details | mass density [kg/m3] | speed of sound [m/s]
m1 = 0.0618 | 787.53 | 1105
m1 = 0.1442 | 788.62 | 1107
m1 = 0.2317 | 789.76 | 1109.6
m1 = 0.3264 | 790.9 | 1112
m1 = 0.4233 | 792.14 | 1114.7

CN1CCCC1=O [N-methylpyrrolidone] + CCO
[2]
Details | mass density [kg/m3] | speed of sound [m/s]
m1 = 0.077 | 786.74 | 1146.8
m1 = 0.1554 | 788.32 | 1149.3
m1 = 0.2349 | 789.86 | 1151.9
m1 = 0.3089 | 791.28 | 1154
m1 = 0.388 | 792.78 | 1156.5

CCC(=O)N(C)C [N,N-dimethylpropionamide] + CCCO
[2]
Details | mass density [kg/m3] | speed of sound [m/s]
m1 = 0.0515 | 800.16 | 1207.9
m1 = 0.1316 | 801.03 | 1209.6
m1 = 0.2061 | 801.84 | 1211.2
m1 = 0.2845 | 802.68 | 1212.9
m1 = 0.3632 | 803.51 | 1214.5

CN1CCCC1=O [N-methylpyrrolidone]
[1]
Details | mass density [kg/m3] | speed of sound [m/s]
– | 1028.01 | 1545.2

CCC(=O)N(C)C [N,N-dimethylpropionamide]
[1]
Details | mass density [kg/m3] | speed of sound [m/s]
– | 921.16 | 1425.4
